What was measured:
Anticarsia gemmatalis [1] = assay: Another test on a non-GM soybean variety (feeding damage); format: in vivo; details: 12.5 g a.i./ha
Anticarsia gemmatalis [2] = details: 12.5 g a.i./ha; 5 days after application; GMO soybean BMX Potencia RR
Anticarsia gemmatalis [3] = assay: whole plant or invertebrate; details: in Glycine max, 48 h, read-out: mortality 2 DAA

Q: With CCS(CC)=NC(=O)c1cc(Cl)cc(C)c1NC(=O)c1cc(C(F)(F)F)nn1-c1ncccc1Cl [compound I-11, 2-(3-chloro-2-pyridyl)-N-[2-methyl-4-chloro-6-[(diethyl-λ^4-sulfanylidene)carbamoyl]phenyl]-5-(trifluoromethyl)pyrazole-3-carboxamide] as the molecule, how does the “reduction in feeding damage compared to the untreated controls” value (Anticarsia gemmatalis [1]) read?
A: Its value is 97%.

Q: What about the “reduction of feeding damage compared to the untreated controls” value (Anticarsia gemmatalis [2]) of the same molecule?
A: Its value is 100%.

Q: What about the mortality at 6.25 g/ha (Anticarsia gemmatalis [3]) of the same molecule?
A: Its mortality at 6.25 g/ha is 83%.

Q: What about the mortality at 50 g/ha (Anticarsia gemmatalis [3]) of the same molecule?
A: Its mortality at 50 g/ha is 87%.
